Data as given in patent US20090162305A1, “FORMULATIONS OF LOW OIL CONTENT COMPRISING […] DERIVATIVES” (SYMRISE GmbH & Co. KG, priority 2006, published 2009).

Test: ABTS assay, cell-free in vitro test of antioxidative capacity
Format: biochemical
Excerpt: ABTS assay is a cell-free in vitro test for evaluation of antioxidative capacity (literature: Re R, Pellegrini N, Proteggente A, Pannala A, Yang M, Rice-Evans C. 1999. “Antioxidant activity applying an improved ABTS radical cation decolorization assay”; Free Radic. Biol. Med. 26: 1231-7). The assay uses the intrinsic colouration of a solution prepared with the cationic radical 2,2′-azinobis(3-ethylbenzothiazoline-6-sulfonic acid) (ABTS+) and potassium persulfate, which is decolourized by addition of antioxidants (reduction of the cationic radical). This decolouration can be measured photometrically at 734 nm. The test is carried out in 96-well microtitre plates. […] All the ABTS test results result from two independent experiments and are presented as means with the associated deviation from the mean.
In order to test whether the antioxidative activity of styrylresorcinol (formula 3; CARN 85-27-8; 4-(1-phenylethyl)-1,3-dihydroxybenzene) is adversely influenced by the presence of significant amounts of oily phase, in a further experiment the antioxidative capacity of two products comprising 30 percent by weight of 2-ethylhexyl isononanoate (INCI Ethylhexyl Isononanoate; product A) and, respectively, 5 percent by weight of 2-ethylhexyl isononanoate (INCI Ethylhexyl Isononanoate; product B) was determined with the aid of ABTS assay.

CC(c1ccccc1)c1ccc(O)cc1O (stereo not drawn) [Styrylresorcinol, 4-(1-phenylethyl)-1,3-dihydroxybenzene]
reduction in the antioxidative capacity compared with the oil-free reference sample (5% of oily phase): 1.6% | deterioration in the antioxidative capacity compared with the oil-free reference sample (30% of oily phase, 0.01% styrylresorcinol): 13.5% | antioxidative capacity greater than that of the reference substance alpha-tocopherol, factor (ABTS, versus alpha-tocopherol): ~2 | antioxidative capacity (ethanolic solution containing 0.01% styrylresorcinol with 30% of oily phase (product A)): 79.4% | antioxidative capacity (mixture according to the invention comprising only 5% of oily phase (product B)): 91.35 | antioxidative capacity (oil-free reference sample containing only 0.01% styrylresorcinol (product C)): 92.9%
